According to the NIST ThermoML archive (doi:10.1021/acs.jced.8b01204):
Numbers after ± are expanded uncertainties.

Legend:
[1] = 101 kPa, Liquid; for speed of sound: Single path-length method; for mass density: Vibrating tube method
[2] = xn = mol fraction of the nth substance listed; settings: 101 kPa, Liquid, x2 = 0; for speed of sound: Single path-length method; for mass density: Vibrating tube method

speed of sound ([1]; 293.15 K) [m/s] | mass density ([1]; 293.15 K) [kg/m3] | speed of sound ([1]; 298.15 K) [m/s] | mass density ([1]; 298.15 K) [kg/m3] | speed of sound ([1]; 303.15 K) [m/s] | mass density ([1]; 303.15 K) [kg/m3] | speed of sound ([1]; 308.15 K) [m/s] | mass density ([1]; 308.15 K) [kg/m3] | speed of sound ([1]; 313.15 K) [m/s] | mass density ([1]; 313.15 K) [kg/m3] | speed of sound ([2]; 293.15 K) [m/s] | mass density ([2]; 293.15 K) [kg/m3] | speed of sound ([2]; 298.15 K) [m/s] | mass density ([2]; 298.15 K) [kg/m3] | speed of sound ([2]; 303.15 K) [m/s] | mass density ([2]; 303.15 K) [kg/m3] | speed of sound ([2]; 308.15 K) [m/s] | mass density ([2]; 308.15 K) [kg/m3] | speed of sound ([2]; 313.15 K) [m/s] | mass density ([2]; 313.15 K) [kg/m3] | Structure (SMILES)
1634.2 ± 6.3 | 1209.8 ± 3.2 | 1614.5 ± 6.3 | 1205.5 ± 3.2 | 1595.7 ± 6.3 | 1201.3 ± 3.2 | 1577.6 ± 6.3 | 1197.2 ± 3.2 | 1559.5 ± 6.3 | 1193 ± 3.2 | – | – | – | – | – | – | – | – | – | – | C[N+]1(CC2CO2)CCCC1=O.O=C([O-])c1ccccc1O (stereo not given) [1-methyl-1-(oxiran-2-ylmethyl)-2-oxopyrrolidinium salicylate]
1166.3 ± 6.1 | 993.8 ± 3 | 1148.1 ± 6.1 | 988.4 ± 3 | 1129.7 ± 6.1 | 983 ± 3 | 1111.3 ± 6.1 | 977.6 ± 3 | 1092.8 ± 6.1 | 972.2 ± 3 | – | – | – | – | – | – | – | – | – | – | CCC(=O)O [propanoic acid]
– | – | – | – | – | – | – | – | – | – | 1166.3 ± 6.1 | 993.8 ± 3 | 1148.1 ± 6.1 | 988.4 ± 3 | 1129.7 ± 6.1 | 983 ± 3 | 1111.3 ± 6.1 | 977.6 ± 3 | 1092.8 ± 6.1 | 972.2 ± 3 | CCC(=O)O [propanoic acid] + C[N+]1(CC2CO2)CCCC1=O.O=C([O-])c1ccccc1O

The next lines start with the compound.

Structure (SMILES) | speed of sound ([1]; 293.15 K) [m/s] | mass density ([1]; 293.15 K) [kg/m3] | speed of sound ([1]; 298.15 K) [m/s] | mass density ([1]; 298.15 K) [kg/m3] | speed of sound ([1]; 303.15 K) [m/s] | mass density ([1]; 303.15 K) [kg/m3] | speed of sound ([1]; 308.15 K) [m/s] | mass density ([1]; 308.15 K) [kg/m3] | speed of sound ([1]; 313.15 K) [m/s] | mass density ([1]; 313.15 K) [kg/m3] | speed of sound ([2]; 293.15 K) [m/s] | mass density ([2]; 293.15 K) [kg/m3] | speed of sound ([2]; 298.15 K) [m/s] | mass density ([2]; 298.15 K) [kg/m3] | speed of sound ([2]; 303.15 K) [m/s] | mass density ([2]; 303.15 K) [kg/m3] | speed of sound ([2]; 308.15 K) [m/s] | mass density ([2]; 308.15 K) [kg/m3] | speed of sound ([2]; 313.15 K) [m/s] | mass density ([2]; 313.15 K) [kg/m3]
CC(=O)O [acetic acid] | 1159.3 ± 6.1 | 1052.5 ± 3 | 1142.8 ± 6.1 | 1046.9 ± 3 | 1126.3 ± 6.1 | 1041.4 ± 3 | 1109.6 ± 6.1 | 1035.8 ± 3 | 1094.8 ± 6.1 | 1030 ± 3 | – | – | – | – | – | – | – | – | – | –
CC(=O)O [acetic acid] + C[N+]1(CC2CO2)CCCC1=O.O=C([O-])c1ccccc1O | – | – | – | – | – | – | – | – | – | – | 1159.3 ± 6.1 | 1052.5 ± 3 | 1142.8 ± 6.1 | 1046.9 ± 3 | 1126.3 ± 6.1 | 1041.4 ± 3 | 1109.6 ± 6.1 | 1035.8 ± 3 | 1094.8 ± 6.1 | 1030 ± 3
